From article PMC6713354, “Structural and biochemical studies of an NB-ARC domain from a plant NLR immune receptor” (PLoS ONE, 2019)

What was measured:
NRC1 NB-ARC domain [1] = biological target: T1, NRC1 NB-ARC domain (Solanum lycopersicum, UniProt A1X877); assay: X-ray crystal structure, […] A (native); SeMet SAD map at […] A; conditions: co-purified ligand; nucleotide-binding pocket; E. coli-expressed protein; crystals at pH 4.5
T1 construct: NB-ARC domain, residues 150-494; E. coli Lemo21(DE3) (pOPIN-S3C, 6xHis-SUMO) or Sf9 cells (pOPIN-F, 6xHis); N-terminal tag cut with 3C protease; 346 residues in expressed construct; about 40 kDa monomer

NRC1 NB-ARC domain [2] = biological target: T2, NRC1 NB-ARC domain (Solanum lycopersicum, UniProt A1X877, D268N); assay: luciferase assay of nucleotide released by boiling, ADP converted to ATP with pyruvate kinase; assay type: binding; conditions: co-purified ligand, no ADP added; protein from Sf9 cells; Walker B mutant; no ATP detected
T2 construct: NB-ARC domain, residues 150-494; E. coli Lemo21(DE3) (pOPIN-S3C, 6xHis-SUMO) or Sf9 cells (pOPIN-F, 6xHis); N-terminal tag cut with 3C protease; 346 residues in expressed construct; about 40 kDa monomer

NRC1 NB-ARC domain [3] = biological target: T1, NRC1 NB-ARC domain; assay: as above; assay type: binding; conditions: co-purified ligand, no ADP added; protein from E. coli and from Sf9 cells; no ATP detected

T1 sequence (A1X877 entry or part of it): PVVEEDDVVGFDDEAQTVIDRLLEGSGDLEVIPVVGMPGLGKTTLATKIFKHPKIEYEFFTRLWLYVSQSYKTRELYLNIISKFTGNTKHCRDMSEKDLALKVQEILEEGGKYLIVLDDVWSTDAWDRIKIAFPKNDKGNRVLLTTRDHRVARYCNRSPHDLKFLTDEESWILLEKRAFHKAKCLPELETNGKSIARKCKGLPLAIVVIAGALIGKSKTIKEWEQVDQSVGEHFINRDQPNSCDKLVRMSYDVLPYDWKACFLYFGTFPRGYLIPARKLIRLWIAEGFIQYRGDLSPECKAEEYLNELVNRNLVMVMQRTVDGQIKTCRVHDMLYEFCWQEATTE
T2 sequence (A1X877 entry or part of it D268N): as the sequence (A1X877 entry or part of it) above, with D119N counted along it

Nc1ncnc2c1ncn2[C@@H]1O[C@H](COP(=O)(O)OP(=O)(O)O)[C@@H](O)[C@H]1O [ADP]
X-ray crystal structure, 2.5 A (native); SeMet SAD map at 3.03 A (NRC1 NB-ARC domain [1]): allowed us to unambiguously position a molecule of ADP, and the side-chains of interacting residues | % ADP occupancy (NRC1 NB-ARC domain [2]): NRC1 NB-ARC^D268N, a mutant designed to abolish ATPase activity, also co-purified with ADP | % ADP occupancy (NRC1 NB-ARC domain [3]): all three NRC1 NB-ARC proteins co-purified with ADP with high occupancy
